According to US10945975B2, “Delaying latency to seizure by combinations of ketone supplements” (priority 2016, dated 2021):
Marks after values point to notes of the source that are not given here.

Assays:
Type in all cases: in vivo, Sprague-Dawley rats
rat model of CNS-OT [1] = assay: Latency to seizure in rat model of CNS-OT (hyperbaric oxygen, 5 ATA); settings: 5 g/kg
Procedure: (§1) The effect of various ketogenic compositions on latency to seizure and seizure severity was tested in a rat model of CNS-OT. Adult male Sprague-Dawley rats (n=60), 250-300 grams (Harlan) were used in the experiments described herein. Rats were given normal chow and water ad libitum and kept on a 12-hour light/dark cycle. At […], the rats were assigned to one of 5 treatment groups: control (water), 1,3-butanediol acetoacetate diester (KE, 10 g/kg), KE/2 (KE, 5 g/kg), KE+MCT (1,3-butanediol acetoacetate diester+medium chain triglyceride, 5 g/kg+5 g/kg) and KS+MCT (Na^+Ca^2+BHB 5 g/kg+MCT 5 g/kg). Rats received one dose of the designated ketogenic agent or water by oral gavage. Rats were then placed into the hyperbaric chamber 29-30 minutes after treatment, and pressurized to 5 atmospheres as provided below, such that rats were exposed to the hyperbaric conditions at 60 minutes after treatment.
The hyperbaric system consisted of two main elements: 1) a plexiglass chamber (˜3 liter capacity, Diamond Box, Buxco, Electronics Inc., model PLY3114), that housed the rat during the experiment, and 2) a hyperbaric chamber (Reimers System Inc.—7.8 ATA MWP), that contained the plexiglass chamber and functioned as the pressure vessel. Both chambers were connected to an air compressor (oil-less rotary scroll compressor—model DK6086, Powerex).
Rats were placed in the hyperbaric chamber, where the rats were allowed 10 minutes to acclimate in air. Then the plexiglass chamber was filled with pure oxygen, and the rats were allowed another 15 minutes to acclimate. The outer chamber was pressurized using air (capacity ˜205 liters) to minimize the risk of an electrical-induced fire. Next, both chambers were compressed to 5 atmospheres absolute (ATA) at a rate of approximately 1 ATA/min. Each experiment was visually monitored via a live camera.
Latency to seizure (LS) was calculated from the moment at which the internal and the external chambers reached 5 ATA until the onset of CNS-OT seizures, as identified above. After the onset of seizures, the plexiglass chamber was flushed with air to quickly terminate seizure, and both chambers decompressed to sea level. Decompression rate was 1 ATA/min. A small sample of blood was drawn and tested immediately for glucose and beta-hydroxybutyrate levels.

rat model of CNS-OT [2] = assay: Seizure severity score in rat model of CNS-OT; settings: 5 g/kg, oral gavage; FIG. 4
Procedure: as §1
Rats were placed in the hyperbaric chamber, where the rats were allowed 10 minutes to acclimate in air. Then the plexiglass chamber was filled with pure oxygen, and the rats were allowed another 15 minutes to acclimate. The outer chamber was pressurized using air (capacity ˜205 liters) to minimize the risk of an electrical-induced fire. […] Each experiment was visually monitored via a live camera. […]

[3] = Blood beta-hydroxybutyrate (BHB) levels after removal from the hyperbaric chamber; settings: 5 g/kg, oral gavage
Procedure: as §1, with “Rats were then placed into the hyperbaric chamber 29-30 minutes after treatment, and pressurized to 5 atmospheres as provided below, such that rats were exposed to the hyperbaric conditions at 60 minutes after treatment.” left out
(§2) Latency to seizure (LS) was calculated from the moment at which the internal and the external chambers reached 5 ATA until the onset of CNS-OT seizures, as identified above. […]
(§3) Body weights were collected for all rats prior to oral gavage of treatment. Blood concentrations of glucose and beta-hydroxybutyrate (BHB) were determined utilizing a commercially available glucose/ketone monitoring system (Precision Xtra® blood glucose and ketone meter) immediately following removal from the hyperbaric chamber. […]

[4] = Blood glucose levels after removal from the hyperbaric chamber; settings: 10 g/kg, oral gavage; FIG. 7
Procedure: as §1, with “Rats were then placed into the hyperbaric chamber 29-30 minutes after treatment, and pressurized to 5 atmospheres as provided below, such that rats were exposed to the hyperbaric conditions at 60 minutes after treatment.” left out
as §2, §3

CC(=O)CC(=O)OCCC(C)OC(=O)CC(C)=O (centres unmarked) [KE, 1,3-butanediol acetoacetate diester]
T-test (p), latency to time of seizure vs control (rat model of CNS-OT [1]; one dose oral gavage, 5 ATA O2, all collected data): 0.256†
Latency to seizure compared to control (rat model of CNS-OT [1]; oral gavage, FIG. 1, all data): about 2 ×
T-test (p), latency to time of seizure vs control (rat model of CNS-OT [1]; oral gavage, outliers excluded (2 standard deviations)): 0.023*
Latency to seizure compared to control (in words) (rat model of CNS-OT [1]; outliers removed, FIG. 2): significantly increased latency to seizure compared to control
Seizure severity (score 0-3) vs control, in words (rat model of CNS-OT [2]): some suppression
Blood BHB levels compared to control ([3]; FIG. 6): about 3 ×
T-test (p), BHB levels vs control ([3]; all collected data): 0.0012**
Blood glucose levels (in words) [4]: highest blood glucose levels
